Reference: ChEMBL document CHEMBL1139109, “Further studies on the binding of N1-substituted tryptamines at h5-HT6 receptors” (Bioorg Med Chem Lett, 2007)

target: 5-hydroxytryptamine receptor 6 (Homo sapiens, UniProt P50406); experiment: Displacement of [3H] LSD from human 5HT6 receptor expressed in HEK293 cells; format: cell-based
Sequence (P50406 whole entry): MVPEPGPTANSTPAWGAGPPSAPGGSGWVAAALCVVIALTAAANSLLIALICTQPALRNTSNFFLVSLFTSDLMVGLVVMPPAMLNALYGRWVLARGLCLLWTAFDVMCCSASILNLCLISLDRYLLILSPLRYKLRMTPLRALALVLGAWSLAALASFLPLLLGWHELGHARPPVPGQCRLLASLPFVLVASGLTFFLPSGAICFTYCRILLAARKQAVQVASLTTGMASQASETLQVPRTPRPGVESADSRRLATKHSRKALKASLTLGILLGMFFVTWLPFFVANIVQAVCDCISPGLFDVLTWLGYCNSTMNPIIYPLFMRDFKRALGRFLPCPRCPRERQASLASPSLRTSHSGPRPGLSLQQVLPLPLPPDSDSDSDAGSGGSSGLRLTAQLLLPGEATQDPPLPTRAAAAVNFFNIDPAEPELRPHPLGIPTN

Compound	Ki [nM]
CCCS(=O)(=O)n1cc(CCN(C)C)c2ccccc21	280
COc1ccc(Cn2cc(CCN(C)C)c3ccccc32)cc1	132
Nc1ccc(Cn2ccc3ccccc32)cc1	8200
COc1ccc(S(=O)(=O)n2cc(CCN(C)C)c3ccccc32)cc1	13
CN(C)CCc1cn(S(=O)(=O)c2ccc(C(F)(F)F)cc2)c2ccccc12	1.9
CCCCCCCCS(=O)(=O)n1cc(CCN(C)C)c2ccccc21	440
CN(C)CCc1cn(S(=O)(=O)C2CCCCC2)c2ccccc12	210
CN(C)CCc1cn(Cc2ccc(N)cc2)c2ccccc12	44
CN(C)CCc1cn(Cc2ccc(C(F)(F)F)cc2)c2ccccc12	445
Cc1ccc(S(=O)(=O)n2cc(CCN(C)C)c3ccccc32)cc1	2.5
CN(C)CCc1cn(Cc2ccc(Cl)cc2)c2ccccc12	20
CCCCCS(=O)(=O)n1cc(CCN(C)C)c2ccccc21	220
Nc1ccc(S(=O)(=O)n2c3c(c4ccccc42)CCCC3)cc1	29
CN(C)CC1CCCc2c1c1ccccc1n2S(=O)(=O)c1ccccc1 (stereo not given)	1.5
CC(C)S(=O)(=O)n1cc(CCN(C)C)c2ccccc21	590
Cc1ccc(Cn2cc(CCN(C)C)c3ccccc32)cc1	29
Nc1ccc(Cn2c3c(c4ccccc42)CCCC3)cc1	6000
CN(C)CCc1cn(S(=O)(=O)c2ccc(Cl)cc2)c2ccccc12	94
CCCCS(=O)(=O)n1cc(CCN(C)C)c2ccccc21	135
CN(C)CC1CCCc2c1c1ccccc1n2Cc1ccccc1 (stereo not given)	136
